Results on 4 compounds are retold here after patent US20220000860A1, “COMPOUNDS, COMPOSITIONS, AND METHODS FOR TREATING HUMAN IMMUNODEFICIENCY VIRUS” (OYAGEN, INC., priority 2017, published 2022).

In one data set the test system is IIIB (Subtype B). As to the kind of experiment: PBMC Acute Infection, IIIB. The format is cell-based, HIV. As for the experimental part:
(§1) PHA-stimulated cells from at least two normal donors were pooled (i.e. mixed together), diluted in fresh medium to a final concentration of 1×10^6 cells/mL, and plated in the interior wells of a 96-well round bottom microplate at 50 μL/well (5×10^4 cells/well). Pooling of mononuclear cells from more than one donor was used to minimize the variability observed between individual donors in quantitative and qualitative differences in HIV infection and overall response to the PHA and IL-2 of primary lymphocyte populations. Each plate contained virus control wells (cells plus virus) and experimental wells (drug plus cells plus virus) of either 00KE_KER2008 (Subtype A), IIIB (Subtype B), or 98US_MSC5016 (Subtype C). Test drug dilutions were prepared at a 2×concentration and 100 μL of each concentration was placed in appropriate wells. Fifty μL of a predetermined dilution of virus stock was placed in each test well (final MOI≅0.1). After this period, cell-free supernatant samples were collected for analysis of reverse transcriptase (RT) activity with an RT assay. […] In the Table below SI50=CC50/EC50 and SI90=CC90/EC90.

Data set [1] addresses T1, pNL4-3 Vif (Vif multimerization) (Human immunodeficiency virus type 1 group M subtype B, UniProt P12504).
T1 construct: expressed in transfected cells; host or cells: HEK293T
The experiment in a line: Vif FqRET Multimerization Assay. It counts as cell-based, HIV. The source says: The quenched fluorescence resonance energy transfer (FqRET) cell-based assay utilized expression of pNL4-3 Vif (accession no. M19921) tagged separately with either a EGFP fluorophore (EGFP-V5-Vif) or a REACh2 quencher (Vif-HA-REACh2) in the pIRES-P vector. The Vif multimerization assay was established through robotic co-transfection of HEK293T (293T) cells with Turbofect (Thermo) and optimized for input plasmid ratio (1:4, fluorophore to quencher) to achieve maximum quench of fluorescent signal. EGFP fluorescence was quantified 24 hours after transfection with a BioTek Synergy4 plate reader (ex=485 nm, em=528 nm) followed by the addition of 0-30 μM compound. The plates were read a second time 24 hours after compound addition. The differential between the first and second read in each well was quantified relative to the DMSO control to determine the change in relative fluorescence units (ΔRFU)
The interaction of 2 molecules of Vif (i.e. dimerization) enables quenching of Enhanced Green Fluorescent Protein (EGFP) signal by Resonance Energy Accepting Chromophore 2 (REACh2), a dark mutant of yellow fluorescent protein that is capable of accepting the EGFP donor fluorescence and quenching its signal without an acceptor signal.

The target of data set [2] is T2, topoisomerase I (TOP1) (Homo sapiens, UniProt P11387).
T2 sequence (P11387 1-765): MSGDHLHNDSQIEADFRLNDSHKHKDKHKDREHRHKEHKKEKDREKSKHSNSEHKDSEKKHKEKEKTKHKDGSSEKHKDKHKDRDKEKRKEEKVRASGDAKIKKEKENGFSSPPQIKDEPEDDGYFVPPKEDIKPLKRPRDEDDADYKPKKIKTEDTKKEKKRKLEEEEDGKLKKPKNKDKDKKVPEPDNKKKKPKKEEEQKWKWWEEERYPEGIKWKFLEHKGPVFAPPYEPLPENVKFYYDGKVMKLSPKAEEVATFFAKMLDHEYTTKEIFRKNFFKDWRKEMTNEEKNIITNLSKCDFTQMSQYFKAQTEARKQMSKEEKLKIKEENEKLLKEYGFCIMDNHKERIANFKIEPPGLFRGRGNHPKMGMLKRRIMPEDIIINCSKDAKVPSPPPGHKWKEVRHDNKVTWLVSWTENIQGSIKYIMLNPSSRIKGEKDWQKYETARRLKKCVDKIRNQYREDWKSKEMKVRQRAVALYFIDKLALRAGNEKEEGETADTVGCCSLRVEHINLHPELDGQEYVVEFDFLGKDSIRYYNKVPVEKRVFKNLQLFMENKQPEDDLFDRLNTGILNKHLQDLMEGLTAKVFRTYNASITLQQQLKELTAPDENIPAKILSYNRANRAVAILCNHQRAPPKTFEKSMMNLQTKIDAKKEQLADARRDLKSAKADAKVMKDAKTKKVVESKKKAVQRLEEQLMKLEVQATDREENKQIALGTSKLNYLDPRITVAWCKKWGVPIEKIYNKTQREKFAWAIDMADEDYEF
The experiment in a line: topoisomerase I inhibition.

The test system of another data set is 98US_MSC5016 (Subtype C). The experiment in a line: PBMC Acute Infection, 98US_MSC5016. It counts as cell-based, HIV. The protocol: as §1
The subject of a further data set is 00KE_KER2008 (Subtype A). The experiment in a line: PBMC Acute Infection, 00KE_KER2008. It counts as cell-based, HIV. As for the experimental part:
as §1

Data set [3] is described as follows: PBMC Acute Infection, cytotoxicity (CC50/CC90). It counts as cell-based. The following applies: human. The protocol: as §1
In another data set the test system is PBMCs. As to the kind of experiment: PBMC Acute Infection, cytotoxicity (CC50/CC90). It counts as cell-based. As for the experimental part:
as §1

Data set [4] has as its system Vif-dependent APOBEC3G degradation. As to the kind of experiment: Vif-Dependent APOBEC3G Degradation Assay. It counts as cell-based, HIV. As for the experimental part: APOBEC3G-V5-mCherry was stably expressed from the pIRES-P vector in 293T cells under puromycin selection. Fifty ng of plasmid expressing Vif-HA (accession no. AB573087) was transfected into the cells in 384-well format with Turbofect on a liquid handling robot. Four hours after transfection the compounds were added to cells in a range from 0-15 μM. Twenty-four hours after compound addition mCherry fluorescence was read on a BioTek Synergy4 plate reader (ex=587 nm, em=610 nm). Relative fluorescence units (RFU) from compound treated wells were quantified using thresholds set by the −Vif (positive control) and +Vif (negative control).

Data set [5] has as its target T2, topoisomerase I (TOP1). The following applies: comparison statement; cited from earlier work.
The target of data set [6] is T3, recombinant HIV (pNL4-3) heterodimeric (p66/p51) Reverse Transcriptase (Human immunodeficiency virus type 1 group M subtype B, UniProt P12497).
T3 construct: purified recombinant HIV (pNL4-3) heterodimeric (p66/p51) Reverse Transcriptase (RT); purchased
As to the kind of experiment: reverse transcriptase assay. It counts as biochemical. The protocol: For the assays listed in Table I, the integrase assay was conducted using the XpressBio HIV-1 Integrase Assay Kit according to the manufacture's protocol. The protease assay was conducted with the Anthranilyl (Abz)-HIV Protease Substrate (Bachem H-2992), a hexapeptide FRET substrate derived from the p24/p15 cleavage site of the viral gag-pol poly-protein, which allows the screening of potential HIV protease inhibitors. 1 mM Abz-Substrate was diluted with Assay Buffer to a working stock of 20 μM. A 50 μM stock HIV-1 protease (received from Sook-kyung Lee (UNC)) was diluted with Assay Buffer (50 mM HEPES, pH 6.8, 150 mM NaCl, and 1% DMSO) to a working stock of 100 nM. 2 μl 100 nM HIV-1 Protease along with 2 uL 20 μM Abz Substrate was added into each well and incubated at room temperature (avoiding light) for 1 hour before being read on an Envision plate reader (Perkin Elmer) excitation at 280 nm, emission at >435 nm. The reverse transcriptase assay utilized purified recombinant HIV (pNL4-3) heterodimeric (p66/p51) Reverse Transcriptase (RT) that was purchased from a commercially available source. The assay was performed in 96-well filter plate, where RT activity was determined by the incorporation of radiolabeled deoxyribonucleotides into the newly synthesized DNA strand. The RT reaction mixture contained in vitro transcribed viral RNA derived from the HIV-1NL4-3 5′-LTR region (position 454 to 652) and primer that is complementary to the primer binding site (PBS, nucleotide residues nucleotides 636 to 652), radiolabeled deoxyribonucleotide, dNTPs and reverse transcriptase. Briefly, the reaction was carried out in a volume of 50 μl containing 50 mM Tris HCl, pH 7.8, 50 mM KCl, 5 mM MgCl2, 1 mM DTT, 50 μM each of dATP, dCTP, dGTP, 50 nM dTTP, 1 μCi of [^3H] dTTP (70-90 Ci/mM) and 5 nM template/primer. The reaction was initiated by the addition of 10 nM RT. For compound screening, serially diluted test articles were added to the reaction followed by the addition of RT. The reaction mixture was incubated at 37° C. for 1 h, and then quenched by the addition of ice-cold trichloroacetic acid (TCA) to the final concentration of 10%. The plate was incubated at 4° C. for 1 h to precipitate the synthesized DNA, then rinsed 3-times with 10% TCA and 1 time with 70% ethanol. After addition of 25 μl scintillation fluid to completely dried wells, radioactivity is counted by MicroBeta scintillation counter. The reduction of radioactivity represents the potency of compound inhibition.

Where [7] appears, read: row of isolate 00KE-KER2008, subtype A.
The mark [8] stands for this setting: row of isolate 98US_MSC5016, subtype C.
[9] abbreviates: Human immunodeficiency virus 1, read-out: A3G degradation at.
The mark [10] stands for this setting: Human immunodeficiency virus 1, IIIB.
Setting [11] is: Human immunodeficiency virus 1, PBMC.

Molecules are shown by their SMILES. Like-named read-outs stand apart in the source and are kept apart here.

T1 sequence (P12504 whole entry): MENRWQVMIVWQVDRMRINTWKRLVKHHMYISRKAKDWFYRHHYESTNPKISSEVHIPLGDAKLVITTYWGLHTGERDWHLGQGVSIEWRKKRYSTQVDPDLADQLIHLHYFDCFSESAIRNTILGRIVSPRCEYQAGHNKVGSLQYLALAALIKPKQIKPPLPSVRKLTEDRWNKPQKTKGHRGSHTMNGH

For the compound `CC[C@@]1(O)C(=O)NCc2c1cc1n(c2=O)Cc2cc3c(N)cccc3nc2-1` [Compound O5-9A, (S)-10-Amino-4-ethyl-4-hydroxy-1,2-dihydroquinolino[2′,3′:3,4]pyrrolo[1,2-b][2,7]naphthyridine-3,14(4H,12H)-dione], the EC50 with IIIB (Subtype B) (Human immunodeficiency virus 1, isolate IIIB, subtype B, RT activity readout, read-out: EC50) is 0.15 µM; in data set [1] it was 3.87 µM; with 98US_MSC5016 (Subtype C) (Human immunodeficiency virus 1, PBMC, isolate 98US_MSC5016, subtype C, RT activity readout, read-out: EC50), 0.06 µM; in the data set on 00KE_KER2008 (Subtype A) (Human immunodeficiency virus 1, PBMC, isolate 00KE-KER2008, subtype A, RT activity readout, read-out: EC50), 0.05 µM; in data set [4] (Human immunodeficiency virus 1, HEK-293T, 24 h, read-out: EC50, A3G Degradation Assay), 1.2 µM; in data set [4] (setting [9]), 1 µM. The 90% effect concentration (EC90) in the data set on IIIB (Subtype B) (Human immunodeficiency virus 1, isolate IIIB, subtype B, RT activity readout, read-out: EC90) worked out at 0.31 µM; with 98US_MSC5016 (Subtype C) (Human immunodeficiency virus 1, PBMC, isolate 98US_MSC5016, subtype C, RT activity readout, read-out: EC90), 0.22 µM; in the data set on 00KE_KER2008 (Subtype A) (Human immunodeficiency virus 1, PBMC, isolate 00KE-KER2008, subtype A, RT activity readout, read-out: EC90), 0.23 µM. In addition, the “Vif multimerization (result in words)” value in data set [1] is listed as “block”. For the same compound, on topoisomerase I (TOP1) [2], the “inhibition of topoisomerase I (TOP1) (result in words)” value is reported as “do not inhibit”. Also, the CC50 in data set [3] (setting [7]) amounted to 9.32 µM; in data set [3] (setting [8]) it was 9.32 µM; in data set [3] (row of isolate IIIB, subtype B), 10 µM. Moreover, the CC90 in data set [3] (setting [7]) was over 100 µM; with PBMCs (setting [8]), over 100 µM; in the data set with PBMCs (row of isolate IIIB, subtype B) it was over 100 µM. For the same compound, in data set [4], the “Vif-dependent A3G degradation (result in words)” value is recorded as “block”.

In the case of `CCc1c2c(nc3ccc(OC(=O)N4CCC(N5CCCCC5)CC4)cc13)-c1cc3c(c(=O)n1C2)CNC(=O)[C@]3(O)CC` [Irino-L, (S)-4,11-diethyl-4-hydroxy-3,14-dioxo-1,2,3,4,12,14-hexahydroquinolino[2′,3′:3,4]pyrrolo[1,2-b][2,7]naphthyridin-9-yl [1,4′-bipiperidine]-1′-carboxylate], the EC50 in the data set with IIIB (Subtype B) (setting [10]) is 2.29 µM; in the data set with 98US_MSC5016 (Subtype C) (setting [11]) it was 1.85 µM; in the data set on 00KE_KER2008 (Subtype A) (setting [11]) it was 2.26 µM; in data set [4] (setting [9]), 5 µM. Also, the EC90 in the data set with IIIB (Subtype B) (setting [10]) was found to be 7.92 µM; in the data set with 98US_MSC5016 (Subtype C) (setting [11]), 7.11 µM; with 00KE_KER2008 (Subtype A) (setting [11]) it was 7.71 µM. Moreover, the CC50 in [3] (setting [7]) is 17.7 µM. The compound also registered a CC90 in data set [3] (setting [7]) of 82.8 µM.

For the compound `CC[C@@]1(O)C(=O)OCc2c1cc1n(c2=O)Cc2cc3ccccc3nc2-1` [camptothecin], the “inhibition of topoisomerase I (TOP1) (result in words)” value at topoisomerase I (TOP1) [5] is reported as “inhibit”.

`Cc1ccnc2c1NC(=O)c1cccnc1N2C1CC1` [nevirapine, reference compound]: the IC50 in data set [6] came to 0.23 µM.
